Test results from US10219516B2, “Molecules having pesticidal utility, and intermediates, compositions, and processes, related thereto” (priority 2015, dated 2019).
Read-outs that look alike come from different tables or passages of the source.

What was measured:
Format in all cases: in vivo
[1] = tested on: Cabbage Looper (Trichoplusia ni, TRIPNI); assay: Bioassay on Cabbage Looper (CL), 128-well diet tray assay; details: Trichoplusia ni
Summary of the method: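 Using eight wells per molecule, artificial diet was dosed at 50 μg/cm^2 with compound in 90:10 acetone-water and dried before one to five second-instar larvae were added per well. Covered vented trays were kept at 25° C. with 14:10 light-dark for five to seven days, then per-well percent mortality was recorded and averaged.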

[2] = tested on: Beet Armyworm (Spodoptera exigua, LAPHEG); assay: Bioassay on Beet Armyworm (BAW), 128-well diet tray assay
Summary of the method: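 Percent mortality, averaged across eight replicate wells, was scored after five to seven days at 25° C. under a 14:10 light-dark cycle. Each well's diet carried 50 μg/cm^2 of the dried test molecule and held one to five second instar larvae.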

[3] = tested on: Yellow Fever Mosquito (Aedes aegypti, AEDSAE); assay: Bioassay on Yellow Fever Mosquito (YFM), 96-well plate larval assay; details: for YFM rating: Yellow Fever Mosquito, 96-well plate larval assay; for YFM (Biological Results, rating): Species YFM (Yellow Fever Mosquito)
Summary of the method: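 Compound stocks at 4000 ppm in DMSO were diluted with 90:10 water/acetone, and 15 μL aliquots were dispensed into six replicate plates. About 1-day-old larvae in liver-powder water were added per well. Plates were covered and held at room temperature for 3 days before each well was scored for mortality.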

[4] = Cabbage Looper, 128-well diet tray assay, read-out: CL rating
[5] = Beet Armyworm, 128-well diet tray assay, read-out: BAW rating
[6] = Species CL (Cabbage Looper), read-out: CL (Biological Results, rating)
[7] = Species BAW (Beet Armyworm), read-out: BAW (Biological Results, rating)

Structure (SMILES) | pest or weed control at 50 µg/cm2 [1, 4] [%] | pest or weed control at 50 µg/cm2 [2, 5] [%] | YFM rating [3] | pest or weed control at 50 µg/cm2 [1, 6] [%] | pest or weed control at 50 µg/cm2 [2, 7] [%] | YFM (Biological Results, rating) [3]
C=Cc1c(F)cc([C@H]2[C@H](C(=O)Nc3ccc(Cl)c(C(=O)Nc4ccc(F)cc4F)c3)C2(Cl)Cl)cc1F (relative stereo) [F566, 2-Chloro-5-(trans-2,2-dichloro-3-(3,5-difluoro-4-vinylphenyl)cyclopropane-1-carboxamido)-N-(2,4-difluorophenyl)benzamide] | 50 to 100 | 50 to 100 | A (80-100) | – | – | –
Cc1cc(F)cnc1NC(=O)c1cc(NC(=O)[C@H]2[C@H](c3cc(Cl)cc(Cl)c3)C2(Cl)Cl)ccc1Cl (relative stereo) [F242, trans-2-Chloro-5-(2,2-dichloro-3-(3,5-dichlorophenyl)cyclopropane-1-carboxamido)-N-(5-fluoro-3-methylpyridin-2-yl)benzamide] | – | – | – | 50 to 100 | 50 to 100 | A (80-100)
N#Cc1cc(F)ccc1NC(=O)c1cccc(NC(=O)[C@H]2[C@H](c3cc(Cl)cc(Cl)c3)C2(Cl)Cl)c1 (relative stereo) [F271, trans-N-(2-Cyano-4-fluorophenyl)-3-(2,2-dichloro-3-(3,5-dichlorophenyl)cyclopropane-1-carboxamido)benzamide] | – | – | – | 50 to 100 | 50 to 100 | A (80-100)
O=C(Nc1ccc(F)cc1F)c1cc(NC(=O)C2C(c3cc(Cl)cc(Cl)c3)[C@@H]2Cl)ccc1Cl (stereo partly drawn) [F214, 2-Chloro-5-((2S)-2-chloro-3-(3,5-dichlorophenyl)cyclopropane-1-carboxamido)-N-(2,4-difluorophenyl)benzamide] | – | – | – | 50 to 100 | 50 to 100 | B (More than 0-Less than 80)
O=C(Nc1ccc(F)cc1F)c1cccc(NC(=O)C2C(c3cc(Cl)cc(Cl)c3)C2(Cl)Cl)c1 (stereo not drawn) [F186, 3-(trans)-2,2-Dichloro-3-(3,5-dichlorophenyl)cyclopropane-1-carboxamido)-N-(2,4-difluorophenyl)benzamide] | – | – | – | 50 to 100 | 50 to 100 | B (More than 0-Less than 80)
CN1Cc2cc(NC(=O)c3cc(NC(=O)[C@H]4[C@H](c5cc(Cl)cc(Cl)c5)C4(Cl)Cl)ccc3Cl)ccc2C1=O (relative stereo) [F518, 2-Chloro-5-(trans)-(2,2-dichloro-3-(3,5-dichlorophenyl)cyclopropane-1-carboxamido)-N-(2-methyl-1-oxoisoindolin-5-yl)benzamide] | 50 to 100 | 50 to 100 | A (80-100) | – | – | –
CNc1ccc(NC(=O)c2cc(NC(=O)[C@H]3[C@H](c4cc(Cl)cc(Cl)c4)C3(Cl)Cl)ccc2Cl)cc1C (relative stereo) [F206, trans-2-Chloro-5-(2,2-dichloro-3-(3,5-dichlorophenyl)cyclopropane-1-carboxamido)-N-(3-methyl-4-(methylamino)phenyl)benzamide] | – | – | – | 50 to 100 | 50 to 100 | A (80-100)
O=C(Nc1cnc2cc[nH]c2c1)c1cc(NC(=O)C2C(c3cc(Cl)cc(Cl)c3)C2(Cl)Cl)ccc1Cl (stereo not drawn) [F437, 2-Chloro-5-(trans)-2,2-dichloro-3-(3,5-dichlorophenyl)cyclopropane-1-carboxamido)-N-(1H-pyrrolo[3,2-b]pyridin-6-yl)benzamide] | 50 to 100 | 50 to 100 | B (More than 0-Less than 80) | – | – | –
CN(C(=O)c1cc(NC(=O)[C@H]2[C@H](c3cc(Br)cc(Br)c3)C2(Cl)Cl)ccc1Cl)c1ccc(F)cc1 (relative stereo) [F91, trans-2-Chloro-5-(2,2-dichloro-3-(3,5-dibromophenyl)cyclopropane-1-carboxamido)-N-(4-fluorophenyl)-N-methylbenzamide] | – | – | – | 50 to 100 | 50 to 100 | B (More than 0-Less than 80)
O=C(Nc1cc(F)c(F)c(Br)c1)c1cc(NC(=O)[C@H]2[C@H](c3cc(Cl)cc(Cl)c3)C2(Cl)Cl)ccc1Cl [F583, N-(3-Bromo-4,5-difluorophenyl)-2-chloro-5-((1R,3R)-2,2-dichloro-3-(3,5-dichlorophenyl)cyclopropane-1-carboxamido)benzamide] | 50 to 100 | 50 to 100 | A (80-100) | – | – | –
Nc1cc(F)ccc1NC(=O)c1cc(NC(=O)[C@H]2[C@H](c3cc(Cl)cc(Cl)c3)C2(Cl)Cl)ccc1Cl (relative stereo) [F361, trans-N-(2-amino-4-fluorophenyl)-2-chloro-5-(2,2-dichloro-3-(3,5-dichlorophenyl)cyclopropane-1-carboxamido)benzamide] | – | – | – | 50 to 100 | 50 to 100 | A (80-100)
O=C(Nc1ccc(F)cc1F)c1cc(NC(=O)[C@H]2[C@H](c3ccc(Cl)c(Cl)c3)C2(Cl)Cl)ccc1F (relative stereo) [F62, trans-5-(2,2-Dichloro-3-(3,4-dichlorophenyl)cyclopropane-1-carboxamido)-N-(2,4-difluorophenyl)-2-fluorobenzamide] | – | – | – | 50 to 100 | 50 to 100 | B (More than 0-Less than 80)
O=C(Nc1ccc2cc[nH]c2n1)c1cc(NC(=O)C2C(c3cc(Cl)cc(Cl)c3)C2(Cl)Cl)ccc1Cl (stereo not drawn) [F178, 2-Chloro-5-(trans)-2,2-dichloro-3-(3,5-dichlorophenyl)cyclopropane-1-carboxamido)-N-(1H-pyrrolo[2,3-b]pyridin-6-yl)benzamide] | – | – | – | 50 to 100 | 50 to 100 | B (More than 0-Less than 80)
O=C(Nc1ccc(SCC(F)(F)F)cc1)c1cc(NC(=O)[C@H]2[C@H](c3cc(Cl)cc(Cl)c3)C2(Cl)Cl)ccc1Cl (relative stereo) [PF10, trans-2-Chloro-5-(2,2-dichloro-3-(3,5-dichlorophenyl)cyclopropane-1-carboxamido)-N-(4-((2,2,2-trifluoroethyl)thio)phenyl)benzamide] | 50 to 100 | 50 to 100 | B (More than 0-Less than 80) | – | – | –
COc1nccc(NC(=O)c2cc(NC(=O)[C@H]3[C@H](c4cc(Cl)cc(Cl)c4)C3(Cl)Cl)ccc2Cl)c1Cl (relative stereo) [F546, 2-Chloro-N-(3-chloro-2-methoxypyridin-4-yl)-5-(trans-2,2-dichloro-3-(3,5-dichlorophenyl)cyclopropane-1-carboxamido)benzamide] | 50 to 100 | 50 to 100 | A (80-100) | – | – | –
N#Cc1cc(F)ccc1NC(=O)c1cc(NC(=O)[C@H]2[C@H](c3ccc(Cl)c(Cl)c3)C2(Cl)Cl)ccc1Cl (relative stereo) [F190, trans-2-Chloro-N-(2-cyano-4-fluorophenyl)-5-(2,2-dichloro-3-(3,4-dichlorophenyl)cyclopropane-1-carboxamido)benzamide] | – | – | – | 50 to 100 | 50 to 100 | A (80-100)
